Assay [1] concerns the target T1, Human Tryptophan 2,3-dioxygenase (TDO) (Homo sapiens, UniProt P48775).
T1 construct: His tag (N); made in house; host or cells: E. coli
Kind of assay: Human TDO enzymatic assay (kynurenine level). To be noted: 1 nM TDO, 350 μM L-Trp; geometric mean; read-out: TDO GMean: IC50 (μM) (Biochemical Assay). The assay is classed as biochemical. The method in brief: (§1)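 Reactions were stopped with TCA, converting N-formylkynurenine to kynurenine for quantitation, with IC50 by nonlinear regression. IDO: 6 nM enzyme, 10 μM L-Trp, 20 min RT. TDO: 1 nM enzyme, 350 μM L-Trp, 70 min RT, both in pH 6.5 buffer.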

For assay [2], the target named is T2, Human Indoleamine 2,3-dioxygenase (IDO) (Homo sapiens, UniProt P14902).
T2 construct: His tag (N); made in house; host or cells: E. coli
T2 sequence (P14902 whole entry): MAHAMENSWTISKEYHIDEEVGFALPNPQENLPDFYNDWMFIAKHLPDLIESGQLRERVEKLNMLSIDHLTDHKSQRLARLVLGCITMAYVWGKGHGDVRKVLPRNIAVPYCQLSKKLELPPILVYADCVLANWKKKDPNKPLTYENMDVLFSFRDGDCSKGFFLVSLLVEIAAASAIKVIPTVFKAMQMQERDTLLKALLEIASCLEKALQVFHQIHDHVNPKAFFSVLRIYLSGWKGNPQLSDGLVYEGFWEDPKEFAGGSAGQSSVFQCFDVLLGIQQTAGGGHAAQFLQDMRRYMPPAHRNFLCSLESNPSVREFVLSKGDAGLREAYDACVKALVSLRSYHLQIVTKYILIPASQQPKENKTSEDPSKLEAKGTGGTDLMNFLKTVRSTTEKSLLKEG
Kind of assay: Human IDO enzymatic assay (kynurenine level). The following applies: 6 nM IDO, 10 μM L-Trp; geometric mean; read-out: IDO1 GMean: IC50 (μM) (Biochemical Assay). The assay is classed as biochemical. The method in brief: as §1

T1 sequence (P48775 whole entry): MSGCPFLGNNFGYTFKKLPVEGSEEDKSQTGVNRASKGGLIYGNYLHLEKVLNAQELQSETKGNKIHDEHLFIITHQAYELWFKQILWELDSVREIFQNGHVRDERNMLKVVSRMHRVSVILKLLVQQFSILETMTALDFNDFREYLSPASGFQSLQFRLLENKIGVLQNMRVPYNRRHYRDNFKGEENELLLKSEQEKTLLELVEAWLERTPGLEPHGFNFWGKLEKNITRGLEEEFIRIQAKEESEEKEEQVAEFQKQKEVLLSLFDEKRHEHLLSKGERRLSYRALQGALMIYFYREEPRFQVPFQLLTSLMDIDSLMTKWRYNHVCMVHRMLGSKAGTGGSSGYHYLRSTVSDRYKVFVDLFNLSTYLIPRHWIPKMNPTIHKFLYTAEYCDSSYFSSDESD

With `O=C(NCC1CC1)N1CCC(C(F)(F)[C@H](O)c2c3c(cc4cn[nH]c24)CC3)CC1` [Compound P-0631, (R)-N-(cyclopropylmethyl)-4-(2-(5,6-dihydro-1H-cyclobuta[f]indazol-7-yl)-1,1-difluoro-2-hydroxyethyl) piperidine-1-carboxamide], the concentration for half-maximal inhibition (IC50) in assay [1] and in assay [2] was 0.0001 to 10 µM throughout.

For `O=C(Nc1cccnc1)N1CCC(C(F)(F)[C@H](O)c2c3c(cc4cn[nH]c24)CC3)CC1` [Compound P-0636, (R)-4-(2-(5,6-dihydro-1H-cyclobuta[f]indazol-7-yl)-1,1-difluoro-2-hydroxyethyl)-N-(pyridin-3-yl)piperidine-1-carboxamide], the half-maximal inhibitory concentration (IC50) in assay [1] and in assay [2] was 0.0001 to 10 µM in each case.

Consider `O=C(Nc1ccc(F)cc1)N1CCC(C(F)(F)[C@H](O)c2c3c(cc4cn[nH]c24)CC3)CC1` [Compound P-0637, (R)-4-(2-(5,6-dihydro-1H-cyclobuta[f]indazol-7-yl)-1,1-difluoro-2-hydroxyethyl)-N-(4-fluorophenyl) piperidine-1-carboxamide], for which the IC50 in assay [1] and in assay [2] was 0.0001 to 10 µM each time.

With `N#Cc1ccc(NC(=O)N2CCC(C(F)(F)[C@H](O)c3c4c(cc5cn[nH]c35)CC4)CC2)cc1` [Compound P-0638, (R)-N-(4-cyanophenyl)-4-(2-(5,6-dihydro-1H-cyclobuta[f]indazol-7-yl)-1,1-difluoro-2-hydroxyethyl) piperidine-1-carboxamide], the IC50 in assay [1] and in assay [2] was 0.0001 to 10 µM throughout.

`CC1(C(O)c2cc(Cl)c(F)c3cn[nH]c23)CC(F)(F)C1` (stereo not shown) [Compound P-0650, (5-chloro-4-fluoro-1H-indazol-7-yl)(3,3-difluoro-1-methylcyclobutyl)methanol]: the half-maximal inhibitory concentration (IC50) in assay [1] and in assay [2] was 0.0001 to 10 µM in each case.

As for `O=C(Cc1ccnc(Cl)c1)N1CCC(C(F)(F)C(O)c2cc(Cl)cc3[nH]ncc23)CC1` (stereo not shown) [Compound P-0657, 1-(4-(2-(6-chloro-1H-indazol-4-yl)-1,1-difluoro-2-hydroxyethyl)piperidin-1-yl)-2-(2-chloropyridin-4-yl)ethan-1-one], the concentration for half-maximal inhibition (IC50) in assay [1] and in assay [2] was 0.0001 to 10 µM each time.

Turning to `CC(C)(C1CCN(C(=O)Nc2ccc(F)cn2)CC1)[C@H](O)c1cc(Cl)cc2cn[nH]c12` [Compound P-0658, (S)-4-(1-(5-chloro-1H-indazol-7-yl)-1-hydroxy-2-methylpropan-2-yl)-N-(5-fluoropyridin-2-yl)piperidine-1-carboxamide], the IC50 in assay [1] and in assay [2] was 0.0001 to 10 µM each time.

On to `CC(C)(C1CCN(C(=O)C2(F)CC2)CC1)[C@H](O)c1cc(Cl)cc2cn[nH]c12` [Compound P-0659, (S)-(4-(1-(5-chloro-1H-indazol-7-yl)-1-hydroxy-2-methylpropan-2-yl)piperidin-1-yl)(1-fluorocyclopropyl) methanone], for which the 50% inhibitory concentration (IC50) in assay [1] and in assay [2] was 0.0001 to 10 µM each time.

Consider `CC(C)(C1CCN(C(=O)Nc2ccc(F)cc2)CC1)C(O)c1cc(Cl)cc2[nH]ncc12` (stereo not shown) [Compound P-0660, 4-(1-(6-chloro-1H-indazol-4-yl)-1-hydroxy-2-methylpropan-2-yl)-N-(4-fluorophenyl) piperidine-1-carboxamide], for which the half-maximal inhibitory concentration (IC50) in assay [1] and in assay [2] was 0.0001 to 10 µM throughout.

In the case of `CC(C)(C1CCN(C(=O)C2(F)CC2)CC1)C(O)c1cc(Cl)cc2[nH]ncc12` (stereo not shown) [Compound P-0661, (4-(1-(6-chloro-1H-indazol-4-yl)-1-hydroxy-2-methylpropan-2-yl)piperidin-1-yl)(1-fluorocyclopropyl) methanone], the 50% inhibitory concentration (IC50) in assay [1] and in assay [2] was 0.0001 to 10 µM each time.

For the molecule `CN(C)C(=O)N1CCC(C(C)(C)[C@H](O)c2cc(Cl)cc3cn[nH]c23)CC1` [Compound P-0662, (S)-4-(1-(5-chloro-1H-indazol-7-yl)-1-hydroxy-2-methylpropan-2-yl)-N,N-dimethylpiperidine-1-carboxamide], the IC50 in assay [1] and in assay [2] was 0.0001 to 10 µM throughout.

Take `CC(C)(C1CCN(C(=O)C(F)(F)F)CC1)[C@H](O)c1cc(Cl)cc2cn[nH]c12` [Compound P-0663, (S)-1-(4-(1-(5-chloro-1H-indazol-7-yl)-1-hydroxy-2-methylpropan-2-yl)piperidin-1-yl)-2,2,2-trifluoroethan-1-one]: the IC50 in assay [1] and in assay [2] was 0.0001 to 10 µM in each case.

As for `CC(C)(C1CCN(C(=O)NCCCO)CC1)[C@H](O)c1cc(Cl)cc2cn[nH]c12` [Compound P-0665, (S)-4-(1-(5-chloro-1H-indazol-7-yl)-1-hydroxy-2-methylpropan-2-yl)-N-(3-hydroxypropyl) piperidine-1-carboxamide], the half-inhibitory concentration (IC50) in assay [1] and in assay [2] was 0.0001 to 10 µM each time.

Consider `CC(C)(O)CNC(=O)N1CCC(C(C)(C)[C@H](O)c2cc(Cl)cc3cn[nH]c23)CC1` [Compound P-0666, (S)-4-(1-(5-chloro-1H-indazol-7-yl)-1-hydroxy-2-methylpropan-2-yl)-N-(2-hydroxy-methylpropyl) piperidine-1-carboxamide], for which the IC50 in assay [1] and in assay [2] was 0.0001 to 10 µM throughout.

On to `CC(C)(C1CCN(C(=O)NCC2(O)COC2)CC1)[C@H](O)c1cc(Cl)cc2cn[nH]c12` [Compound P-0667, (S)-4-(1-(5-chloro-1H-indazol-7-yl)-1-hydroxy-2-methylpropan-2-yl)-N-((3-hydroxyoxetan-3-yl)methyl)piperidine-1-carboxamide], for which the IC50 in assay [1] and in assay [2] was 0.0001 to 10 µM each time.

As for `C[C@H](CO)NC(=O)N1CCC(C(C)(C)[C@H](O)c2cc(Cl)cc3cn[nH]c23)CC1` [Compound P-0668, 4-((S)-1-(5-chloro-1H-indazol-7-yl)-1-hydroxy-2-methylpropan-2-yl)-N-((R)-1-hydroxypropan-2-yl)piperidine-1-carboxamide], the half-inhibitory concentration (IC50) in assay [1] and in assay [2] was 0.0001 to 10 µM each time.

With `C[C@@H](CO)NC(=O)N1CCC(C(C)(C)[C@H](O)c2cc(Cl)cc3cn[nH]c23)CC1` [Compound P-0669, 4-((S)-1-(5-chloro-1H-indazol-7-yl)-1-hydroxy-2-methylpropan-2-yl)-N-((S)-1-hydroxypropan-2-yl)piperidine-1-carboxamide], the IC50 in assay [1] and in assay [2] was 0.0001 to 10 µM each time.

For the molecule `C[C@@H](O)CNC(=O)N1CCC(C(C)(C)[C@H](O)c2cc(Cl)cc3cn[nH]c23)CC1` [Compound P-0670, 4-((S)-1-(5-chloro-1H-indazol-7-yl)-1-hydroxy-2-methylpropan-2-yl)-N-((R)-2-hydroxypropyl) piperidine-1-carboxamide], the IC50 in assay [1] and in assay [2] was 0.0001 to 10 µM in each case.

As for `C[C@H](O)CNC(=O)N1CCC(C(C)(C)[C@H](O)c2cc(Cl)cc3cn[nH]c23)CC1` [Compound P-0671, 4-((S)-1-(5-chloro-1H-indazol-7-yl)-1-hydroxy-2-methylpropan-2-yl)-N-((S)-2-hydroxypropyl) piperidine-1-carboxamide], the IC50 in assay [1] and in assay [2] was 0.0001 to 10 µM each time.

Turning to `CC(C)(C1CCN(C(=O)NC2(C#N)CC2)CC1)[C@H](O)c1cc(Cl)cc2cn[nH]c12` [Compound P-0672, (S)-4-(1-(5-chloro-1H-indazol-7-yl)-1-hydroxy-2-methylpropan-2-yl)-N-(1-cyanocyclopropyl) piperidine-l-carboxamide], the IC50 in assay [1] and in assay [2] was 0.0001 to 10 µM in each case.

Regarding `CC(C)(C1CCN(C(=O)NCC(=O)O)CC1)[C@H](O)c1cc(Cl)cc2cn[nH]c12` [Compound P-0673, (S)-(4-(1-(5-chloro-1H-indazol-7-yl)-1-hydroxy-2-methylpropan-2-yl)piperidine-1-carbonyl)glycine], the concentration for half-maximal inhibition (IC50) in assay [1] and in assay [2] was 0.0001 to 10 µM in each case.

On to `CC(C)(C1CCN(C(=O)NC2CCS(=O)(=O)CC2)CC1)[C@H](O)c1cc(Cl)cc2cn[nH]c12` [Compound P-0674, (S)-4-(1-(5-chloro-1H-indazol-7-yl)-1-hydroxy-2-methylpropan-2-yl)-N-(1,1-dioxidotetrahydro-2H-thiopyran-4-yl)piperidine-1-carboxamide], for which the half-maximal inhibitory concentration (IC50) in assay [1] and in assay [2] was 0.0001 to 10 µM each time.

On to `CC(C)(C1CCN(C(=O)NCC2(C#N)CC2)CC1)[C@H](O)c1cc(Cl)cc2cn[nH]c12` [Compound P-0675, (S)-4-(1-(5-chloro-1H-indazol-7-yl)-1-hydroxy-2-methylpropan-2-yl)-N-((1-cyanocyclopropyl)methyl)piperidine-1-carboxamide], for which the IC50 in assay [1] and in assay [2] was 0.0001 to 10 µM in each case.

For `CN1CCN(Cc2ccc(NC(=O)N3CCC(C(C)(C)[C@H](O)c4cc(Cl)cc5cn[nH]c45)CC3)cc2)CC1` [Compound P-0676, (S)-4-(1-(5-chloro-1H-indazol-7-yl)-1-hydroxy-2-methylpropan-2-yl)-N-(4-((4-methylpiperazin-1-yl)methyl)phenyl) piperidine-1-carboxamide], the IC50 in assay [1] and in assay [2] was 0.0001 to 10 µM throughout.

As to `CC(C)(C1CCN(C(=O)NCCNS(C)(=O)=O)CC1)[C@H](O)c1cc(Cl)cc2cn[nH]c12` [Compound P-0677, (S)-4-(1-(5-chloro-1H-indazol-7-yl)-1-hydroxy-2-methylpropan-2-yl)-N-(2-(methylsulfonamido)ethyl)piperidine-1-carboxamide], the IC50 in assay [1] and in assay [2] was 0.0001 to 10 µM each time.

In the case of `CC(C)(C1CCN(C(=O)NCCN2CCCS2(=O)=O)CC1)[C@H](O)c1cc(Cl)cc2cn[nH]c12` [Compound P-0678, (S)-4-(1-(5-chloro-1H-indazol-7-yl)-1-hydroxy-2-methylpropan-2-yl)-N-(2-(1,1-dioxidoisothiazolidin-2-yl)ethyl)piperidine-1-carboxamide], the IC50 in assay [1] and in assay [2] was 0.0001 to 10 µM in each case.

The values are drawn from patent US10508085B2, “Compounds and methods for IDO and TDO modulation, and indications therefor” (Plexxikon Inc., priority 2016, dated 2019).
